One assay concerns the target T1, MMP-13 (Homo sapiens, UniProt P45452).
T1 construct: made in house; host or cells: baculovirus / insect cells
Nature of the assay: In vitro MMP inhibition, Ki determination (fluorogenic substrate II). The format is biochemical. The settings on record: value not in parenthesis; read-out: MMP-13 Ki. The method in brief: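 Room-temperature, 1 h incubation of APMA-activated recombinant human MMP-13 with 4 μM quenched substrate II (cleaved at Gly-Leu) in pH 7.5 Tris/NaCl/CaCl2 buffer. Inhibition appears as a slowed rise in 330/420 nm fluorescence. Single low enzyme and substrate levels were used for Ki.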

The next assay deals with T2, MMP-2 (Homo sapiens, UniProt P08253).
T2 construct: made in house; host or cells: MMP-2-transfected p2AHT2 cells
T2 sequence (P08253 110-660): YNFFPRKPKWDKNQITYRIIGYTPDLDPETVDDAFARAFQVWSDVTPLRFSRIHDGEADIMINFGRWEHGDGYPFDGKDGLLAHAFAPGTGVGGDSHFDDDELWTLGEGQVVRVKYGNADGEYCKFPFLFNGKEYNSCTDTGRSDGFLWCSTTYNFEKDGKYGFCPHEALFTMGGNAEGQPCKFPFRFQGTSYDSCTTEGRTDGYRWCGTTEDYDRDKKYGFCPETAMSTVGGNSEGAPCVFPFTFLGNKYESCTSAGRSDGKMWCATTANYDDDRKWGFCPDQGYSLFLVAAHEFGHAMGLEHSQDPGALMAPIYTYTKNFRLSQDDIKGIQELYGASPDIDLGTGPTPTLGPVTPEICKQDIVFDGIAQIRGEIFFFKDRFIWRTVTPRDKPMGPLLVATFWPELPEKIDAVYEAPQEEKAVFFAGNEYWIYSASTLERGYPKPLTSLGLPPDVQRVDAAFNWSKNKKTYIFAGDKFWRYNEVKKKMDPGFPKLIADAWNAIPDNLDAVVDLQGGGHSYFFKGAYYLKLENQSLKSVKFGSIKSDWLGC
The description is as above. The format is biochemical. The conditions noted are these: value not in parenthesis; read-out: MMP-2 Ki.

Consider `O=C(NO)C1(S(=O)(=O)N2CCN(c3nncs3)CC2)CCOCC1` [Example 215], for which the Ki at MMP-13 is 1890 nM; on MMP-2, 2370 nM.

As for `CCCc1nnc(N2CCN(S(=O)(=O)C3(C(=O)NO)CCOCC3)CC2)s1` [Example 216], the inhibition constant (Ki) on MMP-13 is 734 nM; on MMP-2 it was 214 nM.

For the compound `CCCCc1ccc(N2CCN(S(=O)(=O)C(C)C(=O)NO)CC2)nc1` (centres unmarked) [Example 217], the figures for the Ki at MMP-13 and at MMP-2 were 1.21 nM and 0.29 nM, respectively.

For the compound `O=C(NO)C1(S(=O)(=O)N2CCN(c3cnc(CCC(F)(F)F)cn3)CC2)CCOCC1` [Example 218], the values for the Ki at MMP-13 and on MMP-2 were 2.03 nM and 1.39 nM, respectively.

As for `CCCCCc1cnc(N2CCN(S(=O)(=O)C3(C(=O)NO)CCOCC3)CC2)cn1` [Example 219], the inhibition constant Ki on MMP-13 stood at 1.11 nM; at MMP-2, 2.5 nM.

Turning to `CCCCOc1ccc(N2CCN(S(=O)(=O)C3(C(=O)NO)CCN(c4ccc5c(c4)OCO5)CC3)CC2)cc1` [Example 221], the Ki at MMP-13 came to 3.52 nM; at MMP-2 it was 8.53 nM.

Regarding `CCCCOc1ccc(N2CCN(S(=O)(=O)C3(C(=O)NO)CCS(=O)(=O)CC3)CC2)cc1` [Example 222], the Ki on MMP-13 was 3.99 nM; at MMP-2 it was 7.88 nM.

For the compound `CCCCOc1ccc(N2CCN(S(=O)(=O)C3(C(=O)NO)CCN(c4ccsc4)CC3)CC2)cc1` [Example 223], the inhibitory constant (Ki) was 1.4 nM on MMP-13 and 3.46 nM on MMP-2.

Regarding `CCCCOc1ccc(N2CCN(S(=O)(=O)C3(C(=O)NO)CCN(c4ccc(C#N)cc4)CC3)CC2)cc1` [Example 225], the values for the Ki on MMP-13 and on MMP-2 were 5.88 nM and 9.28 nM, respectively.

With `CCCCOc1ccc(N2CCN(S(=O)(=O)C3(C(=O)NO)CCN(c4cccc(C)c4)CC3)CC2)cc1` [Example 226], the values for the Ki on MMP-13 and on MMP-2 were 4.38 nM and 10.4 nM, respectively.

For the compound `COCCSc1ccc(N2CCN(S(=O)(=O)C3(C(=O)NO)CCOCC3)CC2)cc1` [Example 227], the inhibitory constant (Ki) was determined as 1.79 nM at MMP-13 and 2.47 nM on MMP-2.

For `CCCCOc1ccc(N2CCN(S(=O)(=O)C3(C(=O)NO)CCN(c4ccc(OC)c(OC)c4)CC3)CC2)cc1` [Example 229], the figures for the inhibition constant (Ki) on MMP-13 and on MMP-2 were 1.01 nM and 2.67 nM, respectively.

With `CCCCOc1ccc(N2CCN(S(=O)(=O)C3(C(=O)NO)CCN(C(=O)N4CCN(C)CC4)CC3)CC2)cc1` [Example 230], the Ki turned out to be 0.27 nM at MMP-13 and 0.46 nM at MMP-2.

On to `CCCCOc1ccc(N2CCN(S(=O)(=O)C3(C(=O)NO)CCN(C(=O)N4CCCC4)CC3)CC2)cc1` [Example 231], for which the Ki was found to be 0.17 nM at MMP-13 and 1.32 nM on MMP-2.

For the compound `CCCCOc1ccc(N2CCN(S(=O)(=O)C3(C(=O)NO)CCSCC3)CC2)cc1` [Example 232], the Ki on MMP-13 was found to be 0.56 nM; on MMP-2, 26.5 nM.

With `CCCCOc1ccc(N2CCN(S(=O)(=O)C3(C(=O)NO)CCN(CCN4CCOCC4)CC3)CC2)cc1` [Example 233], the Ki on MMP-13 is 0.26 nM; at MMP-2 it was 0.771 nM.

With `CCOCCSc1ccc(N2CCN(S(=O)(=O)C3(C(=O)NO)CCOCC3)CC2)cc1` [Example 234], the Ki is 1.61 nM on MMP-13 and 3.16 nM at MMP-2.

As for `CCCCOc1ccc(N2CCN(S(=O)(=O)C3(C(=O)NO)CCN(CCN(CC)CC)CC3)CC2)cc1` [Example 235], the inhibitory constant (Ki) at MMP-13 is 0.3 nM; on MMP-2 it was 0.76 nM.

Turning to `CCCCCc1ccc(N2CCN(S(=O)(=O)C3(C(=O)NO)CCN(S(=O)(=O)N(C)C)CC3)CC2)cc1` [Example 236], the Ki at MMP-13 worked out at 1.47 nM; at MMP-2, 2.58 nM.

As for `CCCCCc1ccc(N2CCN(S(=O)(=O)C3(C(=O)NO)CCN(S(C)(=O)=O)CC3)CC2)cc1` [Example 237], the inhibition constant Ki at MMP-13 was determined as 1.69 nM; at MMP-2, 2.03 nM.

For `CCCCOc1ccc(N2CCN(S(=O)(=O)C3(C(=O)NO)CCN(CCCC(F)(F)F)CC3)CC2)cc1` [Example 238], the inhibition constant (Ki) at MMP-13 came to 0.53 nM; at MMP-2, 1.63 nM.

Consider `CCCCCc1ccc(N2CCN(S(=O)(=O)C3(C(=O)NO)CCN(C(C)=O)CC3)CC2)cc1` [Example 239], for which the inhibitory constant (Ki) at MMP-13 was 0.37 nM; on MMP-2, 0.54 nM.

Consider `CCCCOc1ccc(N2CCN(S(=O)(=O)C3(C(=O)NO)CCN(C(=O)NC(C)(C)C)CC3)CC2)cc1` [Example 240], for which the inhibitory constant (Ki) is 0.327 nM on MMP-13 and 0.536 nM at MMP-2.

With `CCCCOc1ccc(N2CCN(S(=O)(=O)C3(C(=O)NO)CCN(c4ccc(N(C)C)cc4)CC3)CC2)cc1` [Example 241], the Ki is 1.06 nM on MMP-13 and 3.64 nM at MMP-2.

As for `CCCCOc1ccc(N2CCN(S(=O)(=O)C3(C(=O)NO)CCN(C(=O)N(CC)CC)CC3)CC2)cc1` [Example 242], the results for the Ki on MMP-13 and on MMP-2 were 0.331 nM and 0.591 nM, respectively.

With `CCCCOc1ccc(N2CCN(S(=O)(=O)C3(C(=O)NO)CCN(C(=O)N4CCCCC4)CC3)CC2)cc1` [Example 243], the results for the Ki at MMP-13 and on MMP-2 were 0.24 nM and 0.34 nM, respectively.

For `CCCCOc1ccc(N2CCN(S(=O)(=O)C3(C(=O)NO)CCN(C(=O)N(C(C)C)C(C)C)CC3)CC2)cc1` [Example 244], the Ki at MMP-13 is 0.57 nM; on MMP-2, 1.57 nM.

For `CCCCOc1ccc(N2CCN(S(=O)(=O)C3(C(=O)NO)CCN(Cc4nccn4C)CC3)CC2)cc1` [Example 245], the inhibitory constant (Ki) stood at 0.177 nM on MMP-13 and 0.475 nM at MMP-2.

Take `CCCCOc1ccc(N2CCN(S(=O)(=O)C3(C(=O)NO)CCN(Cc4ccc(C)o4)CC3)CC2)cc1` [Example 246]: the values for the Ki on MMP-13 and at MMP-2 were 0.396 nM and 1.2 nM, respectively.

For the compound `CCCCOc1ccc(N2CCN(S(=O)(=O)C3(C(=O)NO)CCN(Cc4ncc[nH]4)CC3)CC2)cc1` [Example 247], the Ki at MMP-13 amounted to 0.166 nM; on MMP-2, 0.686 nM.

With `CCCCOc1ccc(N2CCN(S(=O)(=O)C3(C(=O)NO)CCN(c4ccc(OC)cc4)CC3)CC2)cc1` [Example 249], the Ki on MMP-13 was found to be 2.46 nM; at MMP-2, 4.98 nM.

(Values after patent publication US20050209278A1, “Piperidinyl- and piperazinyl-sulfonylmethyl hydroxamic acids and their use as protease inhibitors” (priority 2002, published 2005).)
